The structures appear in SMILES notation.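 Exposure lasted 48 hours, with cells grown in 96-well plates and compounds tested at five concentrations. Here, GI50 denotes the concentration required for 50% inhibition of growth.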 The source made the active and inactive calls. No stated cut-off is given here; in the data, active = GI50 up to about 1.1 µM and inactive = higher. A value given as a limit tells only on which side of the number the result lay.

Among the test systems are OVCAR-8; RXF 393; PC-3; UACC-62; SK-MEL-5; BT-549; OVCAR-5; SK-OV-3; DU-145; HCT-15; NCI-H23; TK-10; Malme-3M; HT-29; SF-539; SF-268; HOP-92; NCI-H226; HL-60.
What all share (assay): NCI anticancer screen, dose series, 48 h

As for `CN(C)Cc1cc(C(C)(C)C)cc(CN(C)C)c1O`, the GI50 in the assay on OVCAR-8 is 98.4 µM (inactive); in the assay with RXF 393, > 100 µM (inactive); in the assay with PC-3, 77.8 µM (inactive); in the assay with UACC-62 it was > 100 µM (inactive); in the assay on SK-MEL-5, > 100 µM (inactive); in the assay on BT-549, > 100 µM (inactive). Also, the GI50 with OVCAR-5 was 57.3 µM (inactive); in the assay with SK-OV-3 it was > 100 µM (inactive); in the assay with DU-145 it was 83.8 µM (inactive); in the assay with HCT-15, 30.4 µM; in the assay with NCI-H23 it was > 100 µM (inactive); in the assay with TK-10, 67.3 µM (inactive). Further, the GI50 with Malme-3M was > 100 µM (inactive); in the assay with HT-29 it was 35.8 µM (inactive); with SF-539 it was 86.7 µM (inactive); with SF-268, 79.3 µM (inactive); with HOP-92, > 100 µM (inactive).
Consider `Brc1ccc2c(c1)C1=C(CO2)Cc2ccccc2O1`, for which the GI50 in the assay on OVCAR-8 is 20.7 µM (inactive); in the assay with PC-3 it was 17.1 µM (inactive); in the assay on UACC-62, 17.2 µM (inactive); in the assay on NCI-H226 it was 17.5 µM (inactive); in the assay on SK-MEL-5 it was 15 µM (inactive); in the assay with BT-549, 18.2 µM (inactive). The GI50 in the assay on OVCAR-5 is 19.1 µM (inactive); with SK-OV-3 it was 21.5 µM (inactive); in the assay on DU-145, 21.5 µM (inactive); in the assay with HCT-15, 17.3 µM; with NCI-H23, 16.3 µM (inactive); with TK-10, 20.4 µM (inactive). For the same compound, the GI50 was 20.7 µM (inactive) in the assay on Malme-3M; 23.3 µM (inactive) in the assay with HT-29; 18.6 µM (inactive) in the assay on SF-539; 19.1 µM (inactive) with SF-268; 15.6 µM (inactive) with HOP-92.
As to `C/C=C\C(CC(=O)O)CN1CCC2=C(C1)C(S(=O)(=O)C(F)(F)F)c1ccccc12` (stereo unspecified), the GI50 in the assay on OVCAR-8, in the assay with RXF 393, in the assay with PC-3, with UACC-62, in the assay on SK-MEL-5 and with BT-549 was > 100 µM (inactive) each time. For the same compound, the GI50 is > 100 µM (inactive) in the assay with OVCAR-5; > 100 µM (inactive) in the assay with SK-OV-3; > 100 µM (inactive) in the assay on DU-145; greater than 100 µM in the assay on HCT-15; > 100 µM (inactive) in the assay with NCI-H23; > 100 µM (inactive) with Malme-3M. Besides, the GI50 in the assay with HT-29, in the assay on SF-268 and in the assay with HOP-92 was > 100 µM (inactive) each time.
As to `CCCC[P+](CCCC)(CCCC)C(C(=O)OC)C(C(=O)OC)=C1SC(C(=O)OC)=C(C(=O)OC)S1` (stereo unspecified), the GI50 in the assay with OVCAR-8, with RXF 393, in the assay on PC-3, in the assay with UACC-62, in the assay on NCI-H226 and with SK-MEL-5 was > 100 µM (inactive) throughout. The GI50 is > 100 µM (inactive) in the assay with BT-549; > 100 µM (inactive) in the assay with OVCAR-5; > 100 µM (inactive) in the assay on SK-OV-3; > 100 µM (inactive) with DU-145; greater than 100 µM in the assay with HCT-15; > 100 µM (inactive) in the assay with NCI-H23. In addition, the GI50 in the assay on TK-10, with Malme-3M, in the assay on HT-29, in the assay with SF-268 and in the assay with HOP-92 was > 100 µM (inactive) throughout.
As for `Nc1nc(N)c2nc(CNc3ccc(C(=O)NC(CCNC(=O)c4ccccc4C(=O)O)C(=O)O)cc3)cnc2n1` (stereo unspecified), the GI50 is 0.01 µM (active) in the assay with OVCAR-8; 0.01 µM (active) in the assay with PC-3; < 0.0126 µM (active) in the assay with UACC-62; > 100 µM (inactive) with NCI-H226; < 0.0286 µM (active) with SK-MEL-5; > 100 µM (inactive) in the assay on BT-549. The GI50 with OVCAR-5 is > 100 µM (inactive); in the assay with SK-OV-3, > 100 µM (inactive); in the assay with DU-145 it was 0.0339 µM (active); with HCT-15 it was 0.01 µM; in the assay with NCI-H23, < 0.0226 µM (active); with TK-10, > 100 µM (inactive). Further, the GI50 in the assay on Malme-3M was > 36.2 µM (inactive); in the assay on HT-29, 0.01 µM (active); with SF-539, < 0.0256 µM (active); in the assay with SF-268, 0.0101 µM (active); in the assay on HOP-92, 0.0698 µM (active).
As for `C=CCN(Cc1ccncc1)C(=O)C(O)(c1ccccc1)c1ccccc1`, the GI50 in the assay with OVCAR-8 is 86.9 µM (inactive); in the assay on RXF 393, > 100 µM (inactive); in the assay on PC-3 it was 37.2 µM (inactive); with UACC-62, 39.1 µM (inactive); with NCI-H226, > 100 µM (inactive); in the assay on SK-MEL-5, 62.8 µM (inactive). The GI50 in the assay with BT-549 was 11.8 µM (inactive); in the assay with OVCAR-5, > 100 µM (inactive); in the assay on SK-OV-3, > 100 µM (inactive); with DU-145, > 100 µM (inactive); with HCT-15, 65.9 µM; in the assay with NCI-H23, 54.3 µM (inactive). The GI50 in the assay on TK-10 was > 100 µM (inactive); with Malme-3M it was 51.9 µM (inactive); in the assay with HL-60, 35.3 µM (inactive); in the assay on HT-29, 59.3 µM (inactive); in the assay on SF-539, 70.6 µM (inactive); in the assay with SF-268 it was > 100 µM (inactive).
Turning to `CCOC(=O)N(Cc1cccs1)c1cc(OC)c(OC)c(OC)c1`, the GI50 in the assay on OVCAR-8 was 90.4 µM (inactive); with RXF 393, 83 µM (inactive); in the assay with PC-3, 33.1 µM (inactive); in the assay with UACC-62, 40 µM (inactive); with NCI-H226, 86.3 µM (inactive); in the assay on SK-MEL-5 it was 41.7 µM (inactive). Moreover, the GI50 is 40.6 µM (inactive) with BT-549; > 100 µM (inactive) in the assay with OVCAR-5; > 100 µM (inactive) in the assay on DU-145; 62.4 µM with HCT-15; > 100 µM (inactive) with NCI-H23; > 100 µM (inactive) in the assay with TK-10. The GI50 in the assay with Malme-3M was > 100 µM (inactive); in the assay with HL-60, 34.8 µM (inactive); in the assay with HT-29, 70.1 µM (inactive); in the assay with SF-268 it was > 100 µM (inactive).
For `CC(=O)NCCSC(=O)c1ccccc1`, the GI50 in the assay on OVCAR-8 was 0.192 µM (active); in the assay on RXF 393, 0.112 µM (active); in the assay on PC-3 it was 0.525 µM (active); with UACC-62 it was 0.013 µM (active); in the assay on NCI-H226 it was 0.116 µM (active); in the assay with SK-MEL-5 it was 0.0171 µM (active). Besides, the GI50 was 0.946 µM (active) with BT-549; 0.141 µM (active) in the assay on OVCAR-5; 1.13 µM (inactive) in the assay on SK-OV-3; 0.199 µM (active) in the assay with DU-145; 0.156 µM with HCT-15; 0.0559 µM (active) with NCI-H23. The GI50 in the assay on TK-10 was 0.126 µM (active); with Malme-3M, 0.119 µM (active); in the assay with HT-29, 0.167 µM (active); with SF-539 it was 0.387 µM (active); with SF-268 it was 0.0977 µM (active); in the assay on HOP-92 it was 0.918 µM (active).
As to `O=C(N/N=C\c1ccc([N+](=O)[O-])cc1)Nc1ccc2ccccc2c1`, the GI50 in the assay on OVCAR-8 was 29.8 µM (inactive); in the assay on RXF 393 it was > 100 µM (inactive); in the assay on PC-3, 44.8 µM (inactive); with UACC-62, 28.1 µM (inactive); in the assay on NCI-H226 it was 32.6 µM (inactive); in the assay on SK-MEL-5, 77.3 µM (inactive). Also, the GI50 was 45.4 µM (inactive) in the assay on BT-549; 34.8 µM (inactive) in the assay on OVCAR-5; 31.4 µM (inactive) with SK-OV-3; 71.3 µM (inactive) in the assay on DU-145; 38.6 µM with HCT-15; 58.3 µM (inactive) in the assay on NCI-H23. Besides, the GI50 in the assay on TK-10 is 37.5 µM (inactive); in the assay on Malme-3M, 22.5 µM (inactive); with HT-29, 27.1 µM (inactive); in the assay on SF-539 it was 20.7 µM (inactive); with SF-268, 35.1 µM (inactive); in the assay on HOP-92, 28.2 µM (inactive).
As for `CCN(CC)/N=N/c1c(C(N)=O)n[nH]c1C`, the GI50 with OVCAR-8 is 49.4 µM (inactive); in the assay on RXF 393, > 100 µM (inactive); in the assay with PC-3, > 100 µM (inactive); with UACC-62, 35 µM (inactive); in the assay on NCI-H226, 48.9 µM (inactive); in the assay with SK-MEL-5, 33.7 µM (inactive). Further, the GI50 was 11.1 µM (inactive) with BT-549; 22.1 µM (inactive) with SK-OV-3; 69.5 µM (inactive) with DU-145; 63.7 µM in the assay with HCT-15; 36.9 µM (inactive) in the assay with NCI-H23; > 100 µM (inactive) in the assay with TK-10. The GI50 in the assay on Malme-3M was 64.3 µM (inactive); in the assay with HT-29, > 100 µM (inactive); in the assay with SF-539 it was 29.5 µM (inactive); in the assay with SF-268, 39.3 µM (inactive); in the assay on HOP-92, 11.3 µM (inactive).
For the compound `C=C1CC(Cn2cc(Br)c(=O)[nH]c2=O)(c2ccc(-c3ccccc3)cc2)OC1=O` (stereo unspecified), the GI50 in the assay on OVCAR-8 is 0.466 µM (active); in the assay on PC-3, 1.55 µM (inactive); with UACC-62, 1.12 µM (active); in the assay with NCI-H226 it was 1.83 µM (inactive); in the assay with SK-MEL-5 it was 1.27 µM (inactive); in the assay on BT-549, 1.66 µM (inactive). Moreover, the GI50 was 4.8 µM (inactive) in the assay with OVCAR-5; 4.31 µM (inactive) in the assay on SK-OV-3; 1.66 µM (inactive) in the assay with DU-145; 1.61 µM with HCT-15; 0.993 µM (active) in the assay on NCI-H23; 0.432 µM (active) in the assay on TK-10. The GI50 with Malme-3M was 1.56 µM (inactive); with HL-60 it was 0.0975 µM (active); in the assay with HT-29, 0.469 µM (active); in the assay with SF-539, 1.37 µM (inactive); in the assay with SF-268, 2.02 µM (inactive); with HOP-92, 0.0308 µM (active).
Regarding `COc1cc2oc3c(c(=O)c2c(O)c1/C=C/C(C)C)C(C=C(C)C)Oc1cc(O)ccc1-3` (stereo unspecified), the GI50 in the assay with OVCAR-8 is 16.2 µM (inactive); in the assay on PC-3, 15.6 µM (inactive); in the assay with UACC-62, 17.2 µM (inactive); in the assay with NCI-H226, 17.9 µM (inactive); with SK-MEL-5, 18.5 µM (inactive); in the assay on BT-549 it was 10.6 µM (inactive). Also, the GI50 in the assay on OVCAR-5 was 17 µM (inactive); in the assay with SK-OV-3, 16.6 µM (inactive); in the assay with DU-145, 16.3 µM (inactive); in the assay on HCT-15, 15.8 µM; in the assay on NCI-H23, 15.7 µM (inactive); in the assay on TK-10, 16.4 µM (inactive). The GI50 with Malme-3M is 22.5 µM (inactive); in the assay with HL-60, 17.8 µM (inactive); with HT-29, 14 µM (inactive); in the assay with SF-539 it was 17.5 µM (inactive); in the assay on SF-268 it was 18.7 µM (inactive); in the assay with HOP-92, 15.6 µM (inactive).

The record behind these values is ChEMBL document CHEMBL1201862, “PubChem BioAssay data set” (2004).
